Experiment: Induction time for the crystallization of calcium phosphate in artificial urine
Conditions: for induction time t: 15 mM phosphate and 3 mM calcium solution in artificial urine (no magnesium); for delay in the induction time: 1 μM phytate versus solution without inhibitor
Description: From a 15 mM phosphate ion and 3 mM calcium ion solution in artificial urine, the induction times for the crystallization of calcium phosphate have been calculated at different pH and phytate concentration. The artificial urine had no magnesium since it is shown that the magnesium ion is a calcium phosphate crystallization inhibitor. […] Thus, while at pH 6.75, the calcium phosphate solution (without inhibitor) takes 1 minute to crystallize, with 1 μM phytate it takes 2 minutes (the delay in the induction time at this pH value is 1 minute, for 1 μM phytate). However, when the pH decreases to 6.60, the calcium phosphate solution (without inhibitor) takes 6 minutes to crystallize, while with 1 μM phytate it takes 33 minutes (the delay in the induction time at this pH value is 27 minutes, for 1 μM phytate). Thus, for the same amount of inhibitor there is a significant increase of the crystallization time when the value of the pH of the solution decreases.

O=P(O)(O)O[C@H]1[C@H](OP(=O)(O)O)[C@@H](OP(=O)(O)O)[C@H](OP(=O)(O)O)[C@@H](OP(=O)(O)O)[C@H]1OP(=O)(O)O [phytate, myo-inositol-hexaphosphate]
induction time t (0.5 μM phytate, pH = 6.60): 12 min
induction time t (0.5 μM phytate, pH = 6.65): 4 min
induction time t (0.5 μM phytate, pH = 6.75): 1 min
delay in the induction time (pH 6.60): 27 min
delay in the induction time (pH 6.75): 1 min
induction time t (1.0 μM phytate, pH = 6.60): 33 min
induction time t (1.0 μM phytate, pH = 6.65): 6 min
induction time t (1.0 μM phytate, pH = 6.75): 2 min

Source: patent US11207365B2, “Combined preparations of urinary acidifiers and crystallization inhibitors and application thereof for the treatment or prevention of phosphatic or calcium phosphate-induced renal lithiasis” (UNIVERSITAT DE LES ILLES BALEARS, priority 2014, dated 2021)
